Laboratory results: ChEMBL document CHEMBL1152879, “Discovery of GlyT1 inhibitors with improved pharmacokinetic properties” (Bioorg Med Chem Lett, 2009)
Activity calls are given as the source filed them. No cut-off for these calls is given here.

What was measured:
[1] = Clearance in dog at 0.25 mg/kg, iv by cassette dosing; assay type: ADME, organism-based, Canis lupus familiaris; design: dose 0.25 mg/kg, route intravenous; details: in vivo
[2] = Half life in dog at 0.25 mg/kg, iv by cassette dosing; assay type: ADME, organism-based, Canis lupus familiaris; design: dose 0.25 mg/kg, route intravenous; details: in vivo
[3] = biological target: T1, Sodium- and chloride-dependent glycine transporter 1 (Homo sapiens, UniProt P48067); test: (§1) Inhibition of Glyt1
T1 sequence (P48067 whole entry): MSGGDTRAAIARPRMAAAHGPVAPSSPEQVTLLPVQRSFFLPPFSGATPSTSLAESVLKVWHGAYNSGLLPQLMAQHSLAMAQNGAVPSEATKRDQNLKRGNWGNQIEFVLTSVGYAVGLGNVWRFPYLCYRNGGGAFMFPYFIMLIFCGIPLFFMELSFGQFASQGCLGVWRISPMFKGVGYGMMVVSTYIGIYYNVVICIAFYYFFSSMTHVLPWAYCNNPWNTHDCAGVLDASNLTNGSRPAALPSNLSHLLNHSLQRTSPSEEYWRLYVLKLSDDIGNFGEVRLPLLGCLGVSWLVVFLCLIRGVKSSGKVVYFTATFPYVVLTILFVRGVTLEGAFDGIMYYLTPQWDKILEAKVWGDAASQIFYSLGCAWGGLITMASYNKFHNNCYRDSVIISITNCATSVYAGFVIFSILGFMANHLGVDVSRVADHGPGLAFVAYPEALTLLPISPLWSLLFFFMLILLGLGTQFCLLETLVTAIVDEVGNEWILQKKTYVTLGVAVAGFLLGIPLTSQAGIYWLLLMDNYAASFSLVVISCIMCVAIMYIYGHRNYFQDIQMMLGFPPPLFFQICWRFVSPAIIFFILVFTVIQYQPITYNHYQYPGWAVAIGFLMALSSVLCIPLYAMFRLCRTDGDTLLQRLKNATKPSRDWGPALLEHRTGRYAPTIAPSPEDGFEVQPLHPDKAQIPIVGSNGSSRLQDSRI

[4] = biological target: T2, Sodium- and chloride-dependent glycine transporter 2 (Homo sapiens, UniProt Q9Y345); test: Inhibition of Glyt2
T2 sequence (Q9Y345 whole entry): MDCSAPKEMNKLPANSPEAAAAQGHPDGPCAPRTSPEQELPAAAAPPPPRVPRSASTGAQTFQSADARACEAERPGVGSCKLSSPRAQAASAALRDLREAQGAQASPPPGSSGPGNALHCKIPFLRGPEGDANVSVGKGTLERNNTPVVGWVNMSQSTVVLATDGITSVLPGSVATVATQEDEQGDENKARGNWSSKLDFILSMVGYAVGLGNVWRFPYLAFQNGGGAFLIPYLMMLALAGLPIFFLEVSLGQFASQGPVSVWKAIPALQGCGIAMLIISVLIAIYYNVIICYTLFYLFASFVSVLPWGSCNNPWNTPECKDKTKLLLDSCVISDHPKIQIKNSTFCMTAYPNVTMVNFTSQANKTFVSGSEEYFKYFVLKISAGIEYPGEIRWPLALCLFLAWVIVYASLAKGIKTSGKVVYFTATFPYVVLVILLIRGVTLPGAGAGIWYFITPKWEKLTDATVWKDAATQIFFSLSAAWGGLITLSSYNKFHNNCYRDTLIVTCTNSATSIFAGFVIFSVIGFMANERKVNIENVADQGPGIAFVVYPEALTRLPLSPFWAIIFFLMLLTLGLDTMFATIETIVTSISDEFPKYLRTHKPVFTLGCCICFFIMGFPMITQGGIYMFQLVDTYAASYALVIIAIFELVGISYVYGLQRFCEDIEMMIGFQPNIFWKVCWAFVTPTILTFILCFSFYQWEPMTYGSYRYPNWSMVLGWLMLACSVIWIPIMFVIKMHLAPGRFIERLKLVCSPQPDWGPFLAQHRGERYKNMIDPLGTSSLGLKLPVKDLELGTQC

[5] = biological target: T3, Sodium- and chloride-dependent taurine transporter (Homo sapiens, UniProt P31641); test: Inhibition of taurine transporter
T3 sequence (P31641 whole entry): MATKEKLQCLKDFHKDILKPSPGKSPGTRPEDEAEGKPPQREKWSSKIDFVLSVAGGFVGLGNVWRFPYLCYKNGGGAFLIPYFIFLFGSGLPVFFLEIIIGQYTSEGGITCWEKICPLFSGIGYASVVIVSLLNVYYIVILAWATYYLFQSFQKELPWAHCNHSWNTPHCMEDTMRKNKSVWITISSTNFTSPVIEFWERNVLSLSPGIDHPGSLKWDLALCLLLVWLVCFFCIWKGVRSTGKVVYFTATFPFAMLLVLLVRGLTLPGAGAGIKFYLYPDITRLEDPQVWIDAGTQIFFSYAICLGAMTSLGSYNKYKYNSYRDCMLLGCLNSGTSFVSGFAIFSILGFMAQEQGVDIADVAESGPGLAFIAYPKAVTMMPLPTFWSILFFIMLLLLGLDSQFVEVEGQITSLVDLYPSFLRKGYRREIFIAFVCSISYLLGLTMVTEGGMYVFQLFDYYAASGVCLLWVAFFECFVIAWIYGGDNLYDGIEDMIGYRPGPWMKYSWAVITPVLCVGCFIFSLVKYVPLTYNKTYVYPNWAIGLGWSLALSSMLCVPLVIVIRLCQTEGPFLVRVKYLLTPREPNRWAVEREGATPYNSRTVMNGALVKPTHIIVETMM

[6] = Clearance in dog at 0.5 mg/kg, iv and 1 mg/kg, po; assay type: ADME, organism-based, Canis lupus familiaris; details: in vivo
Homo sapiens = organism: Homo sapiens; test: Activity of human P-glycoprotein
Rattus norvegicus [7] = organism: Rattus norvegicus; test: Activity of rat P-glycoprotein
[8] = Volume of distribution at steady state in dog at 0.5 mg/kg, iv and 1 mg/kg, po; assay type: ADME, organism-based, Canis lupus familiaris; details: in vivo, read-out: Vdss
[9] = Half life in dog at 0.5 mg/kg, iv and 1 mg/kg, po; assay type: ADME, organism-based, Canis lupus familiaris; details: in vivo
Rattus norvegicus [10] = test: In vivo plasma occupancy by displacement of [35S]ACPPB from rat GlyT1 in po dosed rat brain; assay type: functional
[11] = Oral bioavailability in dog at 1 mg/kg; assay type: ADME, organism-based, Canis lupus familiaris; details: in vivo
[12] = biological target: T4, Sodium- and chloride-dependent glycine transporter 1 (Homo sapiens) (UniProt P48067); test: as §1
T4 sequence (whole entry): T1 sequence (P48067 whole entry)

MDR1 (human) = test: Passive permeability from apical to basolateral side of pig LLC-PK1 cells expressing human MDR1; assay type: ADME, cell-based, Sus scrofa; details: read-out: permeability

Compound | clearance [1] [L/h/kg] | half-life [2] [h] | IC50 [3] [µM] | IC50 [4] [µM] | IC50 [5] [µM] | other results
CCCS(=O)(=O)N1CCC(CNC(=O)c2ccc(Cl)cc2Cl)(N2CCC2)CC1 | > 0.9 | < 2 | 0.0381 |  |  | 
CN(C)S(=O)(=O)N1CCC(CNC(=O)c2ccc(Cl)cc2Cl)(c2ccccn2)CC1 | 0.708 | 1.9 | 0.077 |  |  | 
CCCS(=O)(=O)N1CCC(CNC(=O)c2ccc(Cl)cc2Cl)(C2CCCCC2O)CC1 (stereo unspecified) | > 0.9 | < 2 | 0.0028 | > 30 | > 30 | 
O=C(NCC1(c2ccccn2)CCN(S(=O)(=O)C(F)(F)F)CC1)c1ccc(Cl)cc1Cl |  |  | > 5 |  |  | 
CCS(=O)(=O)N1CCC(CNC(=O)c2ccc(Cl)cc2Cl)(c2ccccn2)CC1 | 0.084 | 8 | 0.057 | > 30 | > 30 | 
CCCS(=O)(=O)N1CCC(CNC(=O)c2ccc(Cl)cc2Cl)(C2CCCCC2OC(C)=O)CC1 (stereo unspecified) | > 0.9 | < 2 | 0.0177 |  |  | 
O=C(NCC1(c2ccccn2)CCN(S(=O)(=O)CC(F)(F)F)CC1)c1ccc(Cl)cc1Cl | 0.15 | 4.9 | 1.07 |  |  | 
CCCS(=O)(=O)N1CCC(CNC(=O)c2ccc(Cl)cc2Cl)(CC2CC2)CC1 | > 0.9 | < 2 | 0.03 | > 30 | > 30 | 
CC(C)S(=O)(=O)N1CCC(CNC(=O)c2ccc(Cl)cc2Cl)(c2ccccn2)CC1 |  |  | 0.22 |  |  | 
CCS(=O)(=O)N1CCC(CNC(=O)c2ccc(Cl)cc2Cl)(CC2CC2)CC1 | 0.0504 |  |  |  |  | clearance [6]: 0.138 L/h/kg; Activity (Homo sapiens): inactive; Activity (Rattus norvegicus [7]): inactive; Vd [8]: 2.1 L/kg; half-life [9]: 11.8 h; Occ50 (Rattus norvegicus [10]): 260 nM; bioavailability [11]: 38%
CCCS(=O)(=O)N1CCC(CNC(=O)c2ccc(Cl)cc2Cl)(c2ccccn2)CC1 | 0.9 | 2.3 |  | > 30 | > 30 | 
CCCS(=O)(=O)N1CCC(CCOC)(CNC(=O)c2ccc(Cl)cc2Cl)CC1 | > 0.9 | < 2 | 0.0265 | > 30 | > 30 | 
CC(O)CS(=O)(=O)N1CCC(CNC(=O)c2ccc(Cl)cc2Cl)(c2ccccn2)CC1 (stereo unspecified) |  |  | 0.086 |  |  | 
O=C(NCC1(c2ccccn2)CCN(S(=O)(=O)C2CC2)CC1)c1ccc(Cl)cc1Cl | 0.102 | 7.6 | 0.2 | > 30 | > 30 | 
CCS(=O)(=O)N1CCC(c2ccccn2)([C@H](C)NC(=O)c2ccc(Cl)cc2Cl)CC1 | 0.216 |  |  |  |  | clearance [6]: 0.21 L/h/kg; Activity (Homo sapiens): inactive; Activity (Rattus norvegicus [7]): inactive; Vd [8]: 1.37 L/kg; Activity [12]: 11 nM; Papp A→B (MDR1 (human)): 370 nm/s; half-life [9]: 5 h; Occ50 (Rattus norvegicus [10]): 150 nM; bioavailability [11]: 25%
CCCCS(=O)(=O)N1CCC(CNC(=O)c2ccc(Cl)cc2Cl)(c2ccccn2)CC1 |  |  | 0.12 |  |  | 
CS(=O)(=O)N1CCC(CNC(=O)c2ccc(Cl)cc2Cl)(c2ccccn2)CC1 | 0.06 | 8.4 | 0.3 | > 30 | > 30 | 
CC(F)CS(=O)(=O)N1CCC(CNC(=O)c2ccc(Cl)cc2Cl)(c2ccccn2)CC1 (stereo unspecified) |  |  | 0.0097 | > 30 | > 30 | 
CCCS(=O)(=O)N1CCC(CNC(=O)c2ccc(Cl)cc2Cl)(CC2CCCCO2)CC1 (stereo unspecified) | > 0.9 | < 2 | 0.0029 | > 30 | > 30 | 
